Measured values: ChEMBL document CHEMBL1149016, “Plant anticancer agents, XLII. Cytotoxic constituents from Wikstroemia elliptica” (1986)
Values after ≈ are worked out from the molar mass of the structure shown.

What follows are molecules tested on P388 (assay: Cytotoxicity against mouse P388 cells). Conditions: read-out: ED50 (the source's name).
Format: functional
With `COc1cc([C@H]2OC[C@H]3[C@@H]2CO[C@@H]3c2cc(OC)c(O)c(OC)c2)cc(OC)c1O` (racemic) [SYRINGARESINOL] the EC50 was 0.56 µg/mL (≈ 1.34 µM). In the case of `COc1cc2cc(Oc3ccc4ccc(=O)oc4c3)c(=O)oc2cc1O` [DAPHNORETIN], the EC50 is reported as 3.4 µg/mL (≈ 9.65 µM). `COc1cc(C[C@H]2CO[C@H](c3ccc(O)c(OC)c3)[C@H]2CO)ccc1O` (racemic) [LARICIRESINOL] showed an EC50 of 0.38 µg/mL (≈ 1.05 µM). For `COc1cc(C[C@@H]2CO[C@@H](c3cc(OC)c(O)c(OC)c3)[C@@H]2CO)ccc1O` (racemic), the EC50 was 0.33 µg/mL (≈ 0.845 µM). With `O=c1ccc2ccc(O)cc2o1` [UMBELLIFERONE] the EC50 was 3.1 µg/mL (≈ 19.1 µM).
